The results in this text go back to patent publication US12492403B2, “Aptamers and the use thereof in the treatment of cancer” (FUNDACIÓN PARA LA INVESTIGACIÓN BIOMÉDICA DEL HOSPITAL …, priority 2018, dated 2025).

Common to all, as to assay type: cell-based, human
Data set [1] deals with MCF7 cells. The experiment in a line: Colony formation assay. The following applies: MCF7, 150 nM, colonies quantified 9-12 days after seeding. The protocol:
(§1) FIGS. 12A & 12B. Effect of apMNKQ2 on cell clonogenicity. MCF7, MDA-MB-231, and MDA-MB-468 cells were seeded in 24-well plates at a density of 3×10^4 cells/well and transfected at 24 hours with apMNKQ2 at the previously established working concentrations (FIG. 12A). After 24 hours, the cells were collected, counted, and seeded in 6-well plates with 1000 cells/well for MCF7 and MDA-MB-231 and with 5000 cells/well for MDA-MB-468 (FIG. 12B). The boxes represent the mean±the maximum and minimum of 4-5 independent experiments (*p<0.05 and **p<0.01 with respect to the control aptamer AT).
(§2) To perform these assays, 3×10^4 cells/well were seeded in 24-well plates with every 2 wells being considered an experimental point. At 16-24 hours, the cells were transfected with apMNKQ2 or the control aptamer. At 16-24 hours post-transfection, the cells of every two wells were pooled, resuspended in the corresponding medium, counted, and after performing the suitable dilutions, reseeded 1×10^3 or 5×10^3 cells/well in duplicate in 6-well plates. These plates were left in the incubator with a moisture-saturated environment at 37° C. and 5% CO2/[…] for 8-9 days. After this time, the colonies were fixed with methanol (Merck, Germany) for 10 minutes, stained with 0.02% giemsa (Sigma-Aldrich, USA) for 30 minutes, washed with water to eliminate the remaining dye, and left to dry at room temperature. To count the colonies, a colony counter pen (Heathrow Scientific® LLC, United Kingdom) and a magnifying glass (1.75×) (Bel-Art Scienceware, USA) were used. The results were expressed in number of colonies and normalized in percentage with respect to the control.
(§3) For these assays, 1000 cells/well in 6-well plates had previously been established for the MCF7 and MDA-MB-231 lines, however, the PE of the MDA-MB-468 cells was lower (11.5±5.3%), so 5000 cells were seeded. The cells were transfected with apMNKQ2 and the control AT, and collected and reseeded at 24 hours to perform the colony formation assay. The colonies were quantified 9-12 days after seeding. […]

Data set [2] has as its system MDA-MB-468 cells. The experiment in a line: Colony formation assay. The following applies: MDA-MB-468, 50 nM, colonies quantified 9-12 days after seeding. The protocol: as §1, §2, §3
Data set [3] deals with MDA-MB-231 cells. In words: Colony formation assay. The following applies: MDA-MB-231, 400 nM, colonies quantified 9-12 days after seeding. Here is the method:
as §1, §2, §3

Data set [4] concerns MCF7 cells. In words: Apoptosis by annexin V/propidium iodide flow cytometry. As to conditions: MCF7, working concentration 150 nM, 24 hours. The protocol: (§4) FIGS. 10A-10C. Analysis of the effect of the aptamer on apoptosis with annexin V in breast cell lines. MCF7 (FIG. 10A), MDA-MB-231 (FIG. 10B), and MDA-MB-468 (FIG. 10C) cells were seeded in 6-well plates at a density of 2.5×10^5 cells/well and transfected at 24 hours with apMNKQ2 at the set working concentrations. After 24 hours, the cells were collected, fixed, and stained with annexin V-FITC and propidium iodide. Finally, they were analyzed by cytometry. The bars represent the mean±SEM of 3 independent experiments (*p<0.05, **p<0.01, and ***p<0.001).
(§5) The assays were carried out by seeding 5×10^5 cells/well in 6-well plates and transfecting the cells 24 hours later. After 24 hours of transfection, the cells were collected and washed twice with PBS. They were then resuspended in a 1× binding buffer and left at a concentration of 1×10^6 cells/mL. Aliquots of 10^5 cells were separated from the preceding solution, as many as the number of treatments, and the annexin V and propidium iodide dyes were added to obtain: a double negative control (without labeling, living cells), a double positive for both types of labeling (late apoptotic cells and necrotic cells will be labeled), and cells labeled separately with annexin V and propidium iodide. They were incubated in darkness for 15 minutes at room temperature and brought to a final volume of 500 μL with a 1× binding buffer. Finally, the cells were passed through a flow cytometer (BD FACSCalibur™, BDBiosciences, USA) within a time no more than 1 hour after labeling. The data obtained was analyzed by means of the Flowing software 2.5.1 program.
(§6) The translocation of the […] from the inner face of the plasma membrane of the cells to the outer face by translocases is a process characteristic of apoptotic cells. To study this process, assays with annexin V-fluorescein (FITC) were performed in three cell lines. This recombinant protein binds to the phosphatidylserine residues exposed on the outer face of the plasma membrane of apoptotic cells. Together with said recombinant protein, propidium iodide (IP), an impermeable DNA marker that only enters cells when the membrane is compromised, was also used. To perform these assays, the cells were transfected with apMNKQ2 and with the control aptamer AT at the working concentrations. At 24 hours, the cells were collected, fixed, and stained with annexin V-FITC and propidium iodide. Finally, the cells were analyzed by means of flow cytometry and differentiation was made between non-apoptotic cells (annexin V-FICT negative/IP negative), apoptotic cells (annexin V-FICT positive/IP negative), late apoptotic cells (annexin V-FICT positive/IP positive), and necrotic cells (annexin V-FITC negative/IP positive).
A general note: Flow cytometry measures light scatter and fluorescence of single cells or particles in a stream.

Data set [5] has as its system MDA-MB-468 cells. The description is as above. The following applies: MDA-MB-468, working concentration 50 nM, 24 hours. The protocol: as §4, §5, §6
The test system of data set [6] is MDA-MB-231 cells. The data set is described as above. As to conditions: MDA-MB-231, working concentration 400 nM, 24 hours. Here is the method:
as §4, §5, §6

In the case of “5′TGGGGTGGGCGGGCGGGGGTGGGGGTGGT-3′ (DNA, backbone and methylation of C not given here; further chemistry not fully specified) [apMNKQ2]”, the “inhibition in colony formation with respect to control aptamer AT” value in data set [1], in data set [2] and in data set [3] was “statistically significant” throughout. In addition, the “induction of apoptosis (annexin V-FITC/propidium iodide)” value in data set [4] is “capable of inducing apoptosis”; in data set [5], “greater and statistically significant”; in data set [6], “capable of inducing apoptosis”. Further, the “late apoptosis with respect to the control” value in data set [4] was “statistically significant”.
